{
  "source": "patent US12655116B2",
  "about": "“Substituted isophthalic acid diamides” (Bayer Aktiengesellschaft, priority 2020, dated 2026)",
  "key": {"ABUTH [1]": {"system": "ABUTH", "assay": "Pre-emergence herbicidal action against ABUTH", "type": "in vivo, Abutilon theophrasti", "conditions": "Abutilon theophrasti, 504 h", "outline": "(§1)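 Herbicidal effect was assessed 3 weeks after treatment by visual comparison with untreated controls, 100% denoting dead plants. Aqueous WP or EC preparations had been applied at 600 to 800 l/ha with 0.2% wetting agent to the soil covering freshly sown seeds.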"}, "ALOMY [2]": {"system": "ALOMY", "assay": "Pre-emergence herbicidal action against ALOMY", "type": "in vivo, Alopecurus myosuroides", "conditions": "Alopecurus myosuroides, 504 h; 80 g/ha, pre-emergence, scored visually after 3 weeks vs untreated controls (100% = plants have died, 0% = like control plants)", "outline": "as §1"}, "AMARE [3]": {"system": "AMARE", "assay": "Pre-emergence herbicidal action against AMARE", "type": "in vivo, Amaranthus retroflexus", "conditions": "Amaranthus retroflexus, 504 h, scored visually after 3 weeks vs untreated controls, 100% = plants have died, 0% = like control plants", "outline": "as §1"}, "AVEFA": {"system": "AVEFA", "assay": "Pre-emergence herbicidal action against AVEFA", "type": "in vivo, Avena fatua", "conditions": "Avena fatua, 504 h; 80 g/ha, pre-emergence", "outline": "as §1"}, "ECHCG [4]": {"system": "ECHCG", "assay": "Pre-emergence herbicidal action against ECHCG", "type": "in vivo, Echinochloa crus-galli", "conditions": "Echinochloa crus-galli, 504 h", "outline": "as §1"}, "HORMU": {"system": "HORMU", "assay": "Pre-emergence herbicidal action against HORMU", "type": "in vivo, Hordeum murinum", "conditions": "Hordeum murinum, 504 h; 80 g/ha, pre-emergence", "outline": "as §1"}, "LOLRI [5]": {"system": "LOLRI", "assay": "Pre-emergence herbicidal action against LOLRI", "type": "in vivo, Lolium rigidum", "conditions": "Lolium rigidum, 504 h, 80 g/ha", "outline": "as §1"}, "MATIN [6]": {"system": "MATIN", "assay": "Pre-emergence herbicidal action against MATIN", "type": "in vivo, Matricaria inodora", "conditions": "Tripleurospermum inodorum, 504 h", "outline": "as §1"}, "POLCO [7]": {"system": "POLCO", "assay": "Pre-emergence herbicidal action against POLCO", "type": "in vivo, Polygonum convolvulus", "conditions": "Fallopia convolvulus, 504 h, dosage 80 g/ha", "outline": "as §1"}, "SETVI [8]": {"system": "SETVI", "assay": "Pre-emergence herbicidal action against SETVI", "type": "in vivo, Setaria viridis", "conditions": "Setaria viridis, 504 h", "outline": "as §1"}, "STEME [9]": {"system": "STEME", "assay": "Pre-emergence herbicidal action against STEME", "type": "in vivo, Stellaria media", "conditions": "Stellaria media, 504 h", "outline": "as §1"}, "VERPE [10]": {"system": "VERPE", "assay": "Pre-emergence herbicidal action against VERPE", "type": "in vivo, Veronica persica", "conditions": "Veronica persica, 504 h, dosage 80 g/ha", "outline": "as §1"}, "VIOTR [11]": {"system": "VIOTR", "assay": "Pre-emergence herbicidal action against VIOTR", "type": "in vivo, Viola tricolor", "conditions": "Viola tricolor, 504 h", "outline": "as §1"}, "DIGSA [12]": {"system": "DIGSA", "assay": "Pre-emergence herbicidal action against DIGSA", "type": "in vivo, Digitaria sanguinalis", "conditions": "Digitaria sanguinalis, 504 h", "outline": "as §1"}, "ABUTH [13]": {"system": "ABUTH", "assay": "Post-emergence herbicidal action against ABUTH", "type": "in vivo, Abutilon theophrasti", "conditions": "Abutilon theophrasti, 504 h, visual assessment about 3 weeks after treatment vs untreated controls", "outline": "(§2)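 Herbicidal effect was scored visually in percent after about 3 weeks in the greenhouse. Plants had been raised in sandy loam and treated post-emergence at the one-leaf stage with formulated compound at 600 to 800 l/ha water plus 0.2% wetting agent.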"}, "ALOMY [14]": {"system": "ALOMY", "assay": "Post-emergence herbicidal action against ALOMY", "type": "in vivo, Alopecurus myosuroides", "conditions": "Alopecurus myosuroides, 504 h, dosage 20 g/ha, visual assessment about 3 weeks after treatment vs untreated controls", "outline": "as §2"}, "AMARE [15]": {"system": "AMARE", "assay": "Post-emergence herbicidal action against AMARE", "type": "in vivo, Amaranthus retroflexus", "conditions": "Amaranthus retroflexus, 504 h, 20 g/ha, visual assessment about 3 weeks after treatment, 100% = plants have died, 0% = like control plants", "outline": "as §2"}, "ECHCG [16]": {"system": "ECHCG", "assay": "Post-emergence herbicidal action against ECHCG", "type": "in vivo, Echinochloa crus-galli", "conditions": "Echinochloa crus-galli, 504 h, dosage 20 g/ha", "outline": "as §2"}, "LOLRI [17]": {"system": "LOLRI", "assay": "Post-emergence herbicidal action against LOLRI", "type": "in vivo, Lolium rigidum", "conditions": "Lolium rigidum, 504 h, dosage 20 g/ha", "outline": "as §2"}, "MATIN [18]": {"system": "MATIN", "assay": "Post-emergence herbicidal action against MATIN", "type": "in vivo, Matricaria inodora", "conditions": "Tripleurospermum inodorum, 504 h", "outline": "as §2"}, "PHBPU": {"system": "PHBPU", "assay": "Post-emergence herbicidal action against PHBPU", "type": "in vivo, Pharbitis purpurea", "conditions": "Ipomoea purpurea, 504 h, dosage 20 g/ha", "outline": "as §2"}, "POLCO [19]": {"system": "POLCO", "assay": "Post-emergence herbicidal action against POLCO", "type": "in vivo, Polygonum convolvulus", "conditions": "Fallopia convolvulus, 504 h, dosage 20 g/ha", "outline": "as §2"}, "SETVI [20]": {"system": "SETVI", "assay": "Post-emergence herbicidal action against SETVI", "type": "in vivo, Setaria viridis", "conditions": "Setaria viridis, 504 h", "outline": "as §2"}, "STEME [21]": {"system": "STEME", "assay": "Post-emergence herbicidal action against STEME", "type": "in vivo, Stellaria media", "conditions": "Stellaria media, 504 h", "outline": "as §2"}, "VERPE [22]": {"system": "VERPE", "assay": "Post-emergence herbicidal action against VERPE", "type": "in vivo, Veronica persica", "conditions": "Veronica persica, 504 h, 20 g/ha", "outline": "as §2"}, "VIOTR [23]": {"system": "VIOTR", "assay": "Post-emergence herbicidal action against VIOTR", "type": "in vivo, Viola tricolor", "conditions": "Viola tricolor, 504 h", "outline": "as §2"}, "DIGSA [24]": {"system": "DIGSA", "assay": "Post-emergence herbicidal action against DIGSA", "type": "in vivo, Digitaria sanguinalis", "conditions": "Digitaria sanguinalis, 504 h", "outline": "as §2"}},
  "data": [
    {"smiles": "CCNC(=O)c1c(C(F)(F)F)ccc(C(=O)Nc2nnnn2C)c1C", "note": "[Example 1-26]", "values": [
      {"measurement": "pest or weed control at 80 g/ha", "setting": "ABUTH [1]; 80 g/ha, scored visually after 3 weeks vs untreated controls (100% = plants have died, 0% = like control plants)", "result": 100, "unit": "%"},
      {"measurement": "pest or weed control at 20 g/ha", "setting": "ABUTH [1]; dosage 20 g/ha, scored visually after 3 weeks vs untreated controls, 100% = plants have died, 0% = like control plants, read-out: Pre-emergence action against ABUTH (herbicidal activity in percent)", "result": 100, "unit": "%"},
      {"measurement": "pest or weed control at 80 g/ha", "setting": "ALOMY [2]", "result": 100, "unit": "%"},
      {"measurement": "pest or weed control at 20 g/ha", "setting": "AMARE [3]; 20 g/ha", "result": 100, "unit": "%"},
      {"measurement": "pest or weed control at 80 g/ha", "setting": "AMARE [3]; 80 g/ha", "result": 100, "unit": "%"},
      {"measurement": "pest or weed control at 80 g/ha", "setting": "AVEFA", "result": 100, "unit": "%"},
      {"measurement": "pest or weed control at 20 g/ha", "setting": "ECHCG [4]; 20 g/ha", "result": 80, "unit": "%"},
      {"measurement": "pest or weed control at 80 g/ha", "setting": "ECHCG [4]; 80 g/ha", "result": 100, "unit": "%"},
      {"measurement": "pest or weed control at 80 g/ha", "setting": "HORMU", "result": 80, "unit": "%"},
      {"measurement": "pest or weed control at 80 g/ha", "setting": "LOLRI [5]", "result": 80, "unit": "%"},
      {"measurement": "pest or weed control at 20 g/ha", "setting": "MATIN [6]; dosage 20 g/ha", "result": 100, "unit": "%"},
      {"measurement": "pest or weed control at 80 g/ha", "setting": "MATIN [6]; dosage 80 g/ha", "result": 100, "unit": "%"},
      {"measurement": "pest or weed control at 80 g/ha", "setting": "POLCO [7]", "result": 90, "unit": "%"},
      {"measurement": "pest or weed control at 20 g/ha", "setting": "SETVI [8]; dosage 20 g/ha", "result": 80, "unit": "%"},
      {"measurement": "pest or weed control at 80 g/ha", "setting": "SETVI [8]; dosage 80 g/ha", "result": 100, "unit": "%"},
      {"measurement": "pest or weed control at 20 g/ha", "setting": "STEME [9]; dosage 20 g/ha", "result": 100, "unit": "%"},
      {"measurement": "pest or weed control at 80 g/ha", "setting": "STEME [9]; dosage 80 g/ha", "result": 100, "unit": "%"},
      {"measurement": "pest or weed control at 80 g/ha", "setting": "VERPE [10]", "result": 80, "unit": "%"},
      {"measurement": "pest or weed control at 20 g/ha", "setting": "VIOTR [11]; dosage 20 g/ha", "result": 90, "unit": "%"},
      {"measurement": "pest or weed control at 80 g/ha", "setting": "VIOTR [11]; dosage 80 g/ha", "result": 100, "unit": "%"},
      {"measurement": "pest or weed control at 20 g/ha", "setting": "DIGSA [12]; dosage 20 g/ha", "result": 100, "unit": "%"},
      {"measurement": "pest or weed control at 80 g/ha", "setting": "DIGSA [12]; dosage 80 g/ha", "result": 100, "unit": "%"},
      {"measurement": "pest or weed control at 5 g/ha", "setting": "ABUTH [13]; dosage 5 g/ha", "result": 90, "unit": "%"},
      {"measurement": "pest or weed control at 20 g/ha", "setting": "ABUTH [13]; dosage 20 g/ha", "result": 100, "unit": "%"},
      {"measurement": "pest or weed control at 20 g/ha", "setting": "ALOMY [14]", "result": 90, "unit": "%"},
      {"measurement": "pest or weed control at 20 g/ha", "setting": "AMARE [15]", "result": 100, "unit": "%"},
      {"measurement": "pest or weed control at 20 g/ha", "setting": "ECHCG [16]", "result": 80, "unit": "%"},
      {"measurement": "pest or weed control at 20 g/ha", "setting": "LOLRI [17]", "result": 80, "unit": "%"},
      {"measurement": "pest or weed control at 5 g/ha", "setting": "MATIN [18]; dosage 5 g/ha", "result": 90, "unit": "%"},
      {"measurement": "pest or weed control at 20 g/ha", "setting": "MATIN [18]; dosage 20 g/ha", "result": 90, "unit": "%"},
      {"measurement": "pest or weed control at 20 g/ha", "setting": "PHBPU", "result": 80, "unit": "%"},
      {"measurement": "pest or weed control at 20 g/ha", "setting": "POLCO [19]", "result": 90, "unit": "%"},
      {"measurement": "pest or weed control at 5 g/ha", "setting": "SETVI [20]; dosage 5 g/ha", "result": 100, "unit": "%"},
      {"measurement": "pest or weed control at 20 g/ha", "setting": "SETVI [20]; dosage 20 g/ha", "result": 100, "unit": "%"},
      {"measurement": "pest or weed control at 20 g/ha", "setting": "STEME [21]; 20 g/ha", "result": 90, "unit": "%"},
      {"measurement": "pest or weed control at 5 g/ha", "setting": "STEME [21]; dosage 5 g/ha", "result": 90, "unit": "%"},
      {"measurement": "pest or weed control at 20 g/ha", "setting": "VERPE [22]", "result": 80, "unit": "%"},
      {"measurement": "pest or weed control at 5 g/ha", "setting": "VIOTR [23]; 5 g/ha", "result": 100, "unit": "%"},
      {"measurement": "pest or weed control at 20 g/ha", "setting": "VIOTR [23]; 20 g/ha", "result": 100, "unit": "%"},
      {"measurement": "pest or weed control at 5 g/ha", "setting": "DIGSA [24]; 5 g/ha", "result": 90, "unit": "%"},
      {"measurement": "pest or weed control at 20 g/ha", "setting": "DIGSA [24]; 20 g/ha", "result": 100, "unit": "%"}
    ]}
  ]
}
